Data from PubChem BioAssay (NCI).
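Grown in 96-well plates, cells were treated for 48 hours with each compound at five concentrations. Insufficient inhibition: endpoint recorded as highest concentration tested. The concentration for 50% growth inhibition is given as GI50. At the TGI there is no net growth.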

Legend:
Assay in all cases: NCI tumour cell line growth inhibition, 48 h
HCT-15 colon = system: HCT-15 colon
SK-MEL-2 melanoma = system: SK-MEL-2 melanoma
NCI-H460 lung = system: NCI-H460 lung
SK-OV-3 ovarian = system: SK-OV-3 ovarian
LXFL 529 NSCLC = system: LXFL 529 NSCLC
UACC-257 melanoma = system: UACC-257 melanoma
DMS 114 small cell lung = system: DMS 114 small cell lung
SN12C renal = system: SN12C renal
UACC-62 melanoma = system: UACC-62 melanoma
A498 renal = system: A498 renal
M14 melanoma = system: M14 melanoma
SNB-75 CNS = system: SNB-75 CNS
HOP-18 NSCLC = system: HOP-18 NSCLC
MALME-3M melanoma = system: MALME-3M melanoma
DMS 273 small cell lung = system: DMS 273 small cell lung
A549 NSCLC = system: A549 NSCLC
SNB-19 CNS = system: SNB-19 CNS
KM12 colon = system: KM12 colon
SK-MEL-28 melanoma = system: SK-MEL-28 melanoma
IGROV1 ovarian = system: IGROV1 ovarian
TK-10 renal = system: TK-10 renal
SK-MEL-5 melanoma = system: SK-MEL-5 melanoma
RPMI-8226 leukemia = system: RPMI-8226 leukemia
COLO 205 colon = system: COLO 205 colon
HOP-92 NSCLC = system: HOP-92 NSCLC
CAKI-1 renal = system: CAKI-1 renal
RXF 393 renal = system: RXF 393 renal
SR leukemia = system: SR leukemia
M19-MEL melanoma = system: M19-MEL melanoma
SW-620 colon = system: SW-620 colon
RXF-631 renal = system: RXF-631 renal
OVCAR-8 ovarian = system: OVCAR-8 ovarian
MOLT-4 leukemia = system: MOLT-4 leukemia
SF-295 CNS = system: SF-295 CNS
HOP-62 NSCLC = system: HOP-62 NSCLC
786-0 renal = system: 786-0 renal
NCI-H226 lung = system: NCI-H226 lung
EKVX NSCLC = system: EKVX NSCLC
NCI-H23 lung = system: NCI-H23 lung
DLD-1 colon = system: DLD-1 colon
CCRF-CEM leukemia = system: CCRF-CEM leukemia
HCT-116 colon = system: HCT-116 colon
KM20L2 colon = system: KM20L2 colon
XF 498 CNS = system: XF 498 CNS
HCC-2998 colon = system: HCC-2998 colon
OVCAR-5 ovarian = system: OVCAR-5 ovarian
U251 CNS = system: U251 CNS
UO-31 renal = system: UO-31 renal
HL-60(TB) leukemia = system: HL-60(TB) leukemia
ACHN renal = system: ACHN renal
HT29 colon = system: HT29 colon
SF-539 CNS = system: SF-539 CNS
OVCAR-3 ovarian = system: OVCAR-3 ovarian
SF-268 CNS = system: SF-268 CNS
LOX IMVI melanoma = system: LOX IMVI melanoma
SNB-78 CNS = system: SNB-78 CNS
OVCAR-4 ovarian = system: OVCAR-4 ovarian
K-562 leukemia = system: K-562 leukemia
NCI/ADR-RES ovarian = system: NCI/ADR-RES ovarian
MCF7 breast = system: MCF7 breast
NCI-H522 lung = system: NCI-H522 lung
SN12K1 renal = system: SN12K1 renal
P388 leukemia = system: P388 leukemia
P388/ADR leukemia = system: P388/ADR leukemia

## Cc1noc(/N=C2\C=C(Nc3onc(C)c3C)C(=O)c3ccccc32)c1C
HCT-15 colon
  TGI: > 100 µM
SK-MEL-2 melanoma
  TGI: > 100 µM
NCI-H460 lung
  TGI: > 100 µM
SK-OV-3 ovarian
  TGI: > 100 µM
LXFL 529 NSCLC
  TGI: > 100 µM
UACC-257 melanoma
  TGI: > 100 µM
DMS 114 small cell lung
  TGI: > 100 µM
SN12C renal
  TGI: > 100 µM
UACC-62 melanoma
  TGI: > 100 µM
A498 renal
  TGI: > 100 µM
M14 melanoma
  TGI: > 100 µM
SNB-75 CNS
  TGI: > 100 µM
HOP-18 NSCLC
  TGI: > 100 µM
MALME-3M melanoma
  TGI: > 100 µM
DMS 273 small cell lung
  TGI: > 100 µM
A549 NSCLC
  TGI: > 100 µM
SNB-19 CNS
  TGI: > 100 µM
KM12 colon
  TGI: > 100 µM
SK-MEL-28 melanoma
  TGI: > 100 µM
IGROV1 ovarian
  TGI: > 100 µM
TK-10 renal
  TGI: > 100 µM
SK-MEL-5 melanoma
  TGI: > 100 µM
RPMI-8226 leukemia
  TGI: > 100 µM
COLO 205 colon
  TGI: > 100 µM
HOP-92 NSCLC
  TGI: > 100 µM
CAKI-1 renal
  TGI: > 100 µM
RXF 393 renal
  TGI: > 100 µM
SR leukemia
  TGI: > 100 µM
M19-MEL melanoma
  TGI: 17.1 µM
SW-620 colon
  TGI: > 100 µM
RXF-631 renal
  TGI: > 100 µM
OVCAR-8 ovarian
  TGI: > 100 µM
MOLT-4 leukemia
  TGI: > 100 µM
SF-295 CNS
  TGI: > 100 µM
HOP-62 NSCLC
  TGI: > 100 µM
786-0 renal
  TGI: > 100 µM
NCI-H226 lung
  TGI: > 100 µM
EKVX NSCLC
  TGI: > 100 µM
NCI-H23 lung
  TGI: > 100 µM
DLD-1 colon
  TGI: > 100 µM
CCRF-CEM leukemia
  TGI: > 100 µM
HCT-116 colon
  TGI: > 100 µM
KM20L2 colon
  TGI: > 100 µM
XF 498 CNS
  TGI: > 100 µM
HCC-2998 colon
  TGI: > 100 µM
OVCAR-5 ovarian
  TGI: > 100 µM
U251 CNS
  TGI: > 100 µM
UO-31 renal
  TGI: > 100 µM
HL-60(TB) leukemia
  TGI: > 100 µM
ACHN renal
  TGI: > 100 µM
HT29 colon
  TGI: > 100 µM
SF-539 CNS
  TGI: > 100 µM
OVCAR-3 ovarian
  TGI: 83 µM
SF-268 CNS
  TGI: > 100 µM
LOX IMVI melanoma
  TGI: > 100 µM
SNB-78 CNS
  TGI: > 100 µM
OVCAR-4 ovarian
  TGI: > 100 µM
K-562 leukemia
  TGI: > 100 µM

## Cc1ccc(/C=N/NS(=O)(=O)c2ccccc2)c(C)c1
HCT-15 colon
  TGI: > 100 µM
SK-MEL-2 melanoma
  TGI: > 100 µM
NCI-H460 lung
  TGI: > 100 µM
SK-OV-3 ovarian
  TGI: > 100 µM
LXFL 529 NSCLC
  TGI: > 100 µM
UACC-257 melanoma
  TGI: > 100 µM
DMS 114 small cell lung
  TGI: > 100 µM
SN12C renal
  TGI: > 100 µM
UACC-62 melanoma
  TGI: > 100 µM
A498 renal
  TGI: > 100 µM
M14 melanoma
  TGI: > 100 µM
SNB-75 CNS
  TGI: > 100 µM
HOP-18 NSCLC
  TGI: > 100 µM
MALME-3M melanoma
  TGI: > 100 µM
DMS 273 small cell lung
  TGI: > 100 µM
A549 NSCLC
  TGI: > 100 µM
KM12 colon
  TGI: > 100 µM
SK-MEL-28 melanoma
  TGI: > 100 µM
IGROV1 ovarian
  TGI: > 100 µM
TK-10 renal
  TGI: > 100 µM
SK-MEL-5 melanoma
  TGI: > 100 µM
RPMI-8226 leukemia
  TGI: > 100 µM
COLO 205 colon
  TGI: > 100 µM
HOP-92 NSCLC
  TGI: > 100 µM
CAKI-1 renal
  TGI: > 100 µM
RXF 393 renal
  TGI: > 100 µM
SR leukemia
  TGI: > 100 µM
M19-MEL melanoma
  TGI: > 100 µM
SW-620 colon
  TGI: > 100 µM
RXF-631 renal
  TGI: > 100 µM
OVCAR-8 ovarian
  TGI: > 100 µM
MOLT-4 leukemia
  TGI: > 100 µM
SF-295 CNS
  TGI: > 100 µM
HOP-62 NSCLC
  TGI: > 100 µM
786-0 renal
  TGI: > 100 µM
NCI-H226 lung
  TGI: > 100 µM
EKVX NSCLC
  TGI: > 100 µM
NCI-H23 lung
  TGI: > 100 µM
DLD-1 colon
  TGI: > 100 µM
CCRF-CEM leukemia
  TGI: > 100 µM
HCT-116 colon
  TGI: > 100 µM
KM20L2 colon
  TGI: > 100 µM
XF 498 CNS
  TGI: > 100 µM
HCC-2998 colon
  TGI: > 100 µM
OVCAR-5 ovarian
  TGI: > 100 µM
U251 CNS
  TGI: > 100 µM
UO-31 renal
  TGI: > 100 µM
HL-60(TB) leukemia
  TGI: > 100 µM
ACHN renal
  TGI: > 100 µM
HT29 colon
  TGI: > 100 µM
SF-539 CNS
  TGI: > 100 µM
OVCAR-3 ovarian
  TGI: > 100 µM
SF-268 CNS
  TGI: > 100 µM
LOX IMVI melanoma
  TGI: > 100 µM
SNB-78 CNS
  TGI: > 100 µM
OVCAR-4 ovarian
  TGI: > 100 µM
K-562 leukemia
  TGI: > 100 µM

## CCOC(=O)C(C)N1C(=O)c2ccccc2S1(=O)=O (centres undefined)
HCT-15 colon
  TGI: > 100 µM
NCI/ADR-RES ovarian
  TGI: > 100 µM
SK-MEL-2 melanoma
  TGI: > 100 µM
NCI-H460 lung
  TGI: > 100 µM
SK-OV-3 ovarian
  TGI: > 100 µM
MCF7 breast
  TGI: > 100 µM
UACC-257 melanoma
  TGI: > 100 µM
DMS 114 small cell lung
  TGI: > 100 µM
SN12C renal
  TGI: > 100 µM
UACC-62 melanoma
  TGI: > 100 µM
A498 renal
  GI50: 29.1 µM
  TGI: > 100 µM
SNB-75 CNS
  TGI: > 100 µM
HOP-18 NSCLC
  TGI: > 100 µM
MALME-3M melanoma
  TGI: > 100 µM
DMS 273 small cell lung
  TGI: > 100 µM
NCI-H522 lung
  TGI: > 100 µM
A549 NSCLC
  TGI: > 100 µM
SNB-19 CNS
  TGI: > 100 µM
KM12 colon
  TGI: > 100 µM
SK-MEL-28 melanoma
  TGI: > 100 µM
SN12K1 renal
  TGI: > 100 µM
IGROV1 ovarian
  TGI: > 100 µM
SK-MEL-5 melanoma
  TGI: > 100 µM
RPMI-8226 leukemia
  TGI: > 100 µM
COLO 205 colon
  TGI: > 100 µM
HOP-92 NSCLC
  TGI: > 100 µM
CAKI-1 renal
  TGI: > 100 µM
RXF 393 renal
  GI50: > 100 µM
  TGI: > 100 µM
M19-MEL melanoma
  TGI: > 100 µM
SW-620 colon
  TGI: > 100 µM
OVCAR-8 ovarian
  TGI: > 100 µM
MOLT-4 leukemia
  TGI: > 100 µM
SF-295 CNS
  TGI: > 100 µM
HOP-62 NSCLC
  TGI: > 100 µM
P388 leukemia
  TGI: > 100 µM
NCI-H226 lung
  TGI: > 100 µM
EKVX NSCLC
  TGI: > 100 µM
NCI-H23 lung
  TGI: > 100 µM
DLD-1 colon
  TGI: > 100 µM
CCRF-CEM leukemia
  TGI: > 100 µM
HCT-116 colon
  TGI: > 100 µM
XF 498 CNS
  TGI: > 100 µM
HCC-2998 colon
  TGI: > 100 µM
OVCAR-5 ovarian
  TGI: > 100 µM
U251 CNS
  TGI: > 100 µM
UO-31 renal
  TGI: > 100 µM
HL-60(TB) leukemia
  TGI: > 100 µM
HT29 colon
  TGI: > 100 µM
SF-539 CNS
  TGI: > 100 µM
OVCAR-3 ovarian
  TGI: > 100 µM
SF-268 CNS
  TGI: > 100 µM
LOX IMVI melanoma
  TGI: > 100 µM
SNB-78 CNS
  GI50: > 100 µM
  TGI: > 100 µM
OVCAR-4 ovarian
  TGI: > 100 µM
K-562 leukemia
  TGI: > 100 µM
P388/ADR leukemia
  TGI: > 100 µM
